The structures appear in SMILES notation.

Experiment [1] addresses T1, GCN2 (Homo sapiens, UniProt Q9P2K8).
T1 construct: endogenous in cells; host or cells: THP1 (ATCC)
Briefly: In vitro degradation activity of GCN2 in THP1 cells, western blotting. Type of experiment: cell-based. The following applies: test compound 10 μM, 24 hours, relative to DMSO control set at 100. On the procedure: (§1) In vitro degradation activities of GSK3α/β and GCN2 of the example compounds were evaluated by the following method. THP1 cells were purchased from ATCC and cultured in RPMI-1640 supplemented with 10% FBS and 1% penicillin/streptomycin. THP1 cells were seeded at a density of 1×10^6 cells/well in 24-well plate and treated with DMSO control or Example 55 (1, 3, 10 μM), and then incubated for 24 hours. The cells were collected and lysed on ice for 30 minutes in RIPA buffer (Thermo Fisher #87787) containing a protease inhibitor cocktail (Sigma-Aldrich). The lysates were sonicated for 30 sec ON/30 sec OFF for ten cycles and centrifuged for 15 minutes at 15 krpm at 4° C. Protein concentrations were determined by the BCA assay (Thermo Fisher). Proteins were separated with Nu-PAGE (Thermo Fisher) and analyzed by western blotting (standard protocol) using antibodies of anti-GSK3α/β (Cell Signaling #5676), GCN2 (Cell Signaling #3302), and R-actin (Sigma #A2066) (FIG. 1). Bands (luminescent intensities) were quantified using LAS-4000 luminescent image analyzer (Fuji). The values of GSK3α/β and GCN2 were corrected by the internal control value of β-actin and analyzed relative to DMSO control set at 100. The remaining protein rate (%) are described as A≤25%, 25%<B≤50%, 50%<C≤75%, D>75% when the concentration of the test compound is 10 μM.

The test system of another experiment is GSK3α/β and GCN2. Description: Ubiquitin-proteasome system dependency of degradation in THP1 cells with Epoxomicin. Type of experiment: cell-based, human. The note with it: test compound 10 μM with or without 1 μM Epoxomicin, 8 hours, FIG. 2. The procedure:
THP1 cells were seeded at a density of 1×10^6 cells/well in 24-well plate and treated with DMSO control or Example 55 (10 μM) with or without 1 μM of Epoxomicin and incubated for 8 hours. The cells were collected and lysed on ice for 30 minutes in RIPA buffer (Thermo Fisher #87787) containing a protease inhibitor cocktail (Sigma-Aldrich). The lysates were sonicated for 30 sec ON/30 sec OFF for ten cycles and centrifuged for 15 minutes at 15 krpm at 4° C. Protein concentrations were determined by the BCA assay (Thermo Fisher). Proteins were separated with Nu-PAGE (Thermo Fisher) and analyzed by western blotting (standard protocol) using antibodies of anti-GSK3α/β Cell Signaling #5676), GCN2 (Cell Signaling #3302), and β-actin (Sigma #A2066) (FIG. 2).

Experiment [2] concerns the target T2, GSK3β (Homo sapiens, UniProt P49841). Briefly: KINOMEscan active site-dependent competitive binding assay, GSK3β. Set-up: purchased Discover X (KINOMEscan service). The note with it: test compound 1 μM; DMSO = 100% Ctrl, control compound = 0% Ctrl. On the procedure:
(§2) Each of GSK3a/B and GCN2 binding inhibitory activity was evaluated using active site-dependent competitive assay KINOMEscan provided by Discover X (Goldstein, D. M. et al. High-throughput kinase profiling as a platform for drug discovery. Nat. Rev. Drug Discovery. 7, 391-397 (2008)). the “% Ctrl” when the concentration of the test compound is 1 μM is shown in the table below. The “% Ctrl” is calculated by the following formula. (test compound signal−positive control compound signal)/(negative control compound signal−positive control compound signal)×100 • Negative control compound=DMSO (100% Ctrl) • Positive control compound=control compound (0% Ctrl)

Experiment [3] concerns the target T3, human XIAP_BIR3 domain purified protein (Homo sapiens, UniProt P98170).
T3 construct: purchased R & D
Description: XIAP binding inhibitory activity, HTRF method with b-Smac ligand. The following applies: test compound 3 μM; first symbol of the cell; read-out: XIAP binding inhibition rate when the concentration of the test compound is 3 μM. An outline of the steps:
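HTRF competition: human XIAP BIR3 and C-terminally biotinylated Smac peptide AVPIAQK, each diluted to 90 nM before addition, in HEPES pH 7.5 buffer with NaCl, BSA, Triton X-100. Eu-cryptate anti-His/streptavidin-XL665 detection after ≥4 h at room temperature; inhibition % from 665/615 ratio versus no-compound control.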
A general note: In TR-FRET formats the signal depends on donor and acceptor labels being close together.

In experiment [4] the target is T4, GSK3α (Homo sapiens, UniProt P49840). Briefly: In vitro degradation activity of GSK3α in THP1 cells, western blotting. Type of experiment: cell-based. Further details: endogenous in cells; host or cells: THP1 (ATCC). The note with it: test compound 10 μM, 24 hours, relative to DMSO control set at 100. On the procedure: as §1
A general note: In western blotting, separated proteins are transferred to a membrane and probed.

Experiment [5] concerns the target T2, GSK3β. Briefly: In vitro degradation activity of GSK3β in THP1 cells, western blotting. The class given is cell-based. Set-up: endogenous in cells; host or cells: THP1 (ATCC). The note with it: test compound 10 μM, 24 hours, relative to DMSO control set at 100. On the procedure: as §1
The target of experiment [6] is T4, GSK3α. Description: KINOMEscan active site-dependent competitive binding assay, GSK3α. Set-up: purchased Discover X (KINOMEscan service). The note with it: test compound 1 μM; DMSO = 100% Ctrl, control compound = 0% Ctrl. On the procedure:
as §2

The target of experiment [7] is T5, GCN2 (Homo sapiens, UniProt Q9P2K8, S808G).
T5 construct: purchased Discover X (KINOMEscan service)
T5 sequence (Q9P2K8 590-1001 S808G limits assumed): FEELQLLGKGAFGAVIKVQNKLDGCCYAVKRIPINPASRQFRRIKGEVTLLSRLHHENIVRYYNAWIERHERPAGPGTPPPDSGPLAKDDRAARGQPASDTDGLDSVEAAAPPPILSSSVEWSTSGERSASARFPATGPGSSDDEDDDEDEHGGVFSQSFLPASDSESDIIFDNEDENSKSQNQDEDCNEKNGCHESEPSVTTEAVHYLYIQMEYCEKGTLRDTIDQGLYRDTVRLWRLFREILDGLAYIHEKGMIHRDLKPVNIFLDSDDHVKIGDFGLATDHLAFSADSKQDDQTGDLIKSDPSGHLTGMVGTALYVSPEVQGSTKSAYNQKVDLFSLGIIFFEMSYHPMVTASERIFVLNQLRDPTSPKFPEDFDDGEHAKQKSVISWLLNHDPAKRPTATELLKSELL
Description: KINOMEscan active site-dependent competitive binding assay, GCN2. The following applies: test compound 1 μM; DMSO = 100% Ctrl, control compound = 0% Ctrl. On the procedure: as §2

A further experiment concerns the target T6, XIAP (Homo sapiens, UniProt P98170).
T6 construct: endogenous in cells; host or cells: THP1 (ATCC)
Briefly: In vitro degradation activity of XIAP in THP1 cells, western blotting. The class given is cell-based. The following applies: test compound 10 μM, 24 hours, relative to DMSO control set at 100. The procedure: In vitro degradation activities of XIAP of the example compounds were evaluated by the following method. THP1 cells were purchased from ATCC and cultured in RPMI-1640 supplemented with 10% FBS and 1% penicillin/streptomycin. THP1 cells were seeded at a density of 1×10^6 cells/well in 24-well plate and treated with DMSO control or Example 86 and 87 (0.001, 0.01, 0.1, 1, 10 μM), and then incubated for 24 hours. The cells were collected and lysed on ice for 30 minutes in lysis buffer (0.5% Triton X-100, 0.01 M Tris-HCl (pH 8.0), 0.15 M NaCl) containing a protease inhibitor cocktail (Sigma-Aldrich). The lysates were sonicated for 30 sec ON/30 sec OFF for ten cycles and centrifuged for 15 minutes at 15 krpm at 4° C. Protein concentrations were determined by the BCA assay (Thermo Fisher). Proteins were separated with Nu-PAGE (Thermo Fisher) and analyzed by western blotting (standard protocol) using antibodies of anti-XIAP (Cell Signaling #14334), and β-actin (Sigma #A2066). Bands (luminescent intensities) were quantified using LAS-4000 luminescent image analyzer (Fuji). The values of XIAP were corrected by the internal control value of β-actin and analyzed relative to DMSO control set at 100. The remaining protein rate (%) are described as A≤25%, 25%<B≤50%, 50%<C≤75%, D>75% when the concentration of the test compound is 10 μM.

T3 sequence (P98170 252-356 limits assumed): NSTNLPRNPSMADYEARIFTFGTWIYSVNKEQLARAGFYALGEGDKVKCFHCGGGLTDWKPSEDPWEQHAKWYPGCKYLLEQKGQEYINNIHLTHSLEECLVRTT
T4 sequence (P49840 whole entry): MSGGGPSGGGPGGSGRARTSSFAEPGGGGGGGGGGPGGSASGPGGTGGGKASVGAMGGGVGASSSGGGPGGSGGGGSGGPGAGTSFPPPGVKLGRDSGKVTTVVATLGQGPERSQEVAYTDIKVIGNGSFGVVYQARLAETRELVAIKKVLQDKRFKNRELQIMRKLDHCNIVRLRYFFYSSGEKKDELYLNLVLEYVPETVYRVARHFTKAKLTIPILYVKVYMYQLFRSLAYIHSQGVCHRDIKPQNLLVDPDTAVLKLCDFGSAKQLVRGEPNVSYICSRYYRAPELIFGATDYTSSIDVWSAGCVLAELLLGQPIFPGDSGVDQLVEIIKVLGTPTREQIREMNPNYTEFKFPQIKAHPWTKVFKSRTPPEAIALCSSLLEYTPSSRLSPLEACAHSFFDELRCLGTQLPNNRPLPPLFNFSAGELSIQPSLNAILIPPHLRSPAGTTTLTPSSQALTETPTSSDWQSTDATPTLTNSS
T2 sequence (P49841 whole entry): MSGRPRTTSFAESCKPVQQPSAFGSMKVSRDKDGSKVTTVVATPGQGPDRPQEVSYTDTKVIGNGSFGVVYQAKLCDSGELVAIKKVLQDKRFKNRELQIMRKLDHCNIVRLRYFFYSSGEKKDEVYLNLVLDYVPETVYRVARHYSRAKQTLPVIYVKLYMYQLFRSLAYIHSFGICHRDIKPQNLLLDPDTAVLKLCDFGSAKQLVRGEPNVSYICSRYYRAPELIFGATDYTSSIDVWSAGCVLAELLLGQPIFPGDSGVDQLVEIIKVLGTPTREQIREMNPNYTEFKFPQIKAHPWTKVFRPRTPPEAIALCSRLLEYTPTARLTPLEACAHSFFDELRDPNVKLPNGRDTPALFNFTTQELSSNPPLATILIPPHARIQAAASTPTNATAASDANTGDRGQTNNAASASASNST
T6 sequence (P98170 whole entry): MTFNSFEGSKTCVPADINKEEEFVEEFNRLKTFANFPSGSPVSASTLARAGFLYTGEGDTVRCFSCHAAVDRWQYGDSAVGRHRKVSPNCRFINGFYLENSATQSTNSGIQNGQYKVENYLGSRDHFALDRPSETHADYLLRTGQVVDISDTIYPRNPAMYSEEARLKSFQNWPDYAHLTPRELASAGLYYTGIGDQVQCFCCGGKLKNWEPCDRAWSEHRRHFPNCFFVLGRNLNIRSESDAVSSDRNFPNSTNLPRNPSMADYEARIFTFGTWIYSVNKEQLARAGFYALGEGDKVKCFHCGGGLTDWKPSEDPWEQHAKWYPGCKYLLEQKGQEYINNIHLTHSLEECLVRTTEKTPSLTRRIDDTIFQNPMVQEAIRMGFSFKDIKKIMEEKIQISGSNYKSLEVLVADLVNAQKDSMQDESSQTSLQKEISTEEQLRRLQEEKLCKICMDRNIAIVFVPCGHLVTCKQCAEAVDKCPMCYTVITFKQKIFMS
T1 sequence (Q9P2K8 whole entry): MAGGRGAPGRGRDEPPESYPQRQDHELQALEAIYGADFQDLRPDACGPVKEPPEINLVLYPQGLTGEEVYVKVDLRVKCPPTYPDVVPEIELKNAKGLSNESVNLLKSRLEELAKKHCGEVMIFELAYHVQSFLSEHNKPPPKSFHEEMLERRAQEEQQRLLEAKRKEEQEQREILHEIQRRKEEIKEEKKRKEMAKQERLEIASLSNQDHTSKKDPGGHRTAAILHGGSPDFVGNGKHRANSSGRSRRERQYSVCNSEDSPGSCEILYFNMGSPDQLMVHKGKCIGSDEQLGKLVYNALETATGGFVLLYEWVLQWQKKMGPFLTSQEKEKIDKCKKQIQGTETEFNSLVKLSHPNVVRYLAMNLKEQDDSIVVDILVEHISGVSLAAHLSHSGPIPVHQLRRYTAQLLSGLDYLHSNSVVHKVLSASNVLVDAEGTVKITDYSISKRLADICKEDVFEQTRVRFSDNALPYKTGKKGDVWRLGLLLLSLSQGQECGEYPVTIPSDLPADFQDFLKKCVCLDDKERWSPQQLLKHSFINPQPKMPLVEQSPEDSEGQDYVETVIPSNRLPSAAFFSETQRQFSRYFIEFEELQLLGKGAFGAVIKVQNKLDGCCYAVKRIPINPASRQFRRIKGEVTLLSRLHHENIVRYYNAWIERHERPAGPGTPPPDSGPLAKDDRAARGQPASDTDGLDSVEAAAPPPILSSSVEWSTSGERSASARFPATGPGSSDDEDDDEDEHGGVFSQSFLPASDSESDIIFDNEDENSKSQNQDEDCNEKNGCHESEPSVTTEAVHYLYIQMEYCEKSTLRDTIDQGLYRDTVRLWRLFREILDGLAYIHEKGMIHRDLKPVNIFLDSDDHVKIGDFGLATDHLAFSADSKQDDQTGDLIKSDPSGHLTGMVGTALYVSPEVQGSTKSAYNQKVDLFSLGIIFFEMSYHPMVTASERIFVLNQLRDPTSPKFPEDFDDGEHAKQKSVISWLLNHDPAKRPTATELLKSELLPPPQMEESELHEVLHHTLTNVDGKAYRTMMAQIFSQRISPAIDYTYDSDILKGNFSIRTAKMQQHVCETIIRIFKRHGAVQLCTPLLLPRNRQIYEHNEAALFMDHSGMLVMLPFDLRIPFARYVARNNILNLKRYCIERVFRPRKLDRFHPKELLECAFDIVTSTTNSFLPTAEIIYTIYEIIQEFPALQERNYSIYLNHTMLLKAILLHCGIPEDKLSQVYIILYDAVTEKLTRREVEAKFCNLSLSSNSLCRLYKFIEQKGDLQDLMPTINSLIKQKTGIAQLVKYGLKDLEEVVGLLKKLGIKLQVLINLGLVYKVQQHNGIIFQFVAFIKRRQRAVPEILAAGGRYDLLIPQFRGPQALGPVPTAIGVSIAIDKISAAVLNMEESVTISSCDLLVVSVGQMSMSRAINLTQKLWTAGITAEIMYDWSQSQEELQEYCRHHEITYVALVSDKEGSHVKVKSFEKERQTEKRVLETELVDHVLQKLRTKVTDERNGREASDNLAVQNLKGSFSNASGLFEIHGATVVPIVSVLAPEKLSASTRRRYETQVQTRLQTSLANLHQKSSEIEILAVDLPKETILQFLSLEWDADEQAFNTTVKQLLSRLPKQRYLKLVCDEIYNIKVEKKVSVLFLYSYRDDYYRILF

For the compound `CN[C@@H](C)C(=O)N[C@H](C(=O)N1CCN(C(=O)c2c(C(=O)NCCOCCOCC(=O)N3CCN(c4ccc(Nc5ncc6nnn(-c7ccc(OC)c(OC)c7)c6n5)cc4)CC3)c3ccc(OC)cc3n2C)CC1)C1CCCCC1` [Example 55, 2-(4-((S)-2-Cyclohexyl-2-((S)-2-(methylamino)propanamido)acetyl)piperazine-1-carbonyl)-N-(2-(2-(2-(4-(4-((3-(3,4-dimethoxyphenyl)-3H-[1,2,3]triazolo[4,5-d]pyrimidin-5-yl)amino)phenyl)piperazin-1-yl)-2-oxoethoxy)ethoxy)ethyl)-6-methoxy-1-methyl-1H-indole-3-carboxamide], at GCN2 [1], the “remaining protein rate (%) GCN2” value was “A (A≤25%)”. The “degradation activity of GSK3α/β and GCN2 with proteasome inhibitor Epoxomicin” value with GSK3α/β and GCN2 was “cancelled by the proteasome inhibitor Epoxomicin treatment”. Besides, the results for the remaining binding at 1 µM on GSK3β [2], at GSK3α [6] and on GCN2 [7] were 11%, 39% and 0.35%, respectively. Also, the inhibition at 3 µM in experiment [3] is above 75%. Moreover, the “remaining protein rate (%) GSK3α” value at GSK3α [4] is listed as “B (25%<B≤50%)”. The “remaining protein rate (%) GSK3β” value at GSK3β [5] is given as “B (25%<B≤50%)”.
As to `CN[C@@H](C)C(=O)N[C@H](C(=O)N1CCN(C(=O)c2cc3cc(F)ccc3n2CC(=O)NCCOCCNC(=O)Cn2c(C(=O)N3CCN(C(=O)[C@@H](NC(=O)[C@H](C)NC)C4CCCCC4)CC3)cc3cc(F)ccc32)CC1)C1CCCCC1` [Example 87, (S)—N—((S)-1-Cyclohexyl-2-(4-(1-(2-((2-(2-(2-(2-(4-((R)-2-cyclohexyl-2-((R)-2-(methylamino)propanamide)acetyl)piperazine-1-carbonyl)-5-fluoro-1H-indol-1-yl)acetamide)ethoxy)ethyl)amino)-2-oxoethyl)-5-fluoro-1H-indole-2-carbonyl)piperazin-1-yl)-2-oxoethyl)-2-(methylamino)propanamide bistrifluoroacetate], in experiment [3], the inhibition at 3 µM was above 75%. In addition, at XIAP, the “remaining protein rate (%) XIAP” value is recorded as “C (50%<C≤75%)”.
